# Results from patent US20240342158A1, “METHOD OF TREATING AND/OR PREVENTING TYPE 1 DIABETES WITH CEPHARANTHINE” (ALBERT EINSTEIN COLLEGE OF MEDICINE, priority 2021, published 2024).
# Experiments:
# [1] = system: humanized NOD-DR3 mice; assay: Free T4 and anti-mouse Tg antibody levels in cepharanthine-treated immunized mice; assay type: in vivo; conditions: data not shown
# Procedure: Autoantibody Measurements: Sera were collected from mice upon sacrifice and stored in −20° C. Nunc™ Maxisorp™ ELISA plate (Thermo Fisher Scientific, Waltham, MA) was coated with 10 μg/ml of either Tg.1571, GAD.492, TPO.758 or mouse Tg in bicarbonate buffer (Sigma-Aldrich) at pH 9.6 and incubated overnight. The ELISA plate was washed 4 times with PBS supplemented with 0.05% Tween (Sigma-Aldrich) [PBST]. After blocking with 2.5% BSA in PBST for 1 h at 37° C., the plate was washed with PBST for 6 times. 100 μl of the diluted sera (1:100 in 0.5% BSA/PBS) was added for 2 h with slow shaking at room temperature. After washing for 6 times with PBST, anti-mouse IgG secondary antibody (Sigma-Aldrich) was added at 1:30,000 dilution in 1% BSA/PBST and incubated for 30 min at 37° C. After washing the plate for 4 times with PBST, the freshly prepared paranitrophenylphosphate substrate (Sigma-Aldrich) was added for 1 h and the plate was read at 405 nm using the BMG reader (BMG Labtech, Cary, NC).
# Free T4 Measurements: Sera were collected from mice and were assayed for free thyroxin (fT4) measurements using free thyroxine ELISA kit (Alpha Diagnostic International, San Antonio, TX, catalog no. 1110). Assay was performed according to manufacturer's protocol. […] Absorbance at 450 nm was measured using a BMG ELISA reader (BMG Labtech). […]
# [2] = system: splenocytes and draining lymph node cells of immunized NOD-DR3 mice; assay: Small molecule inhibition of cytokine production ex vivo (Milliplex); assay type: cell-based, humanized NOD-DR3 mice
# Procedure: Cytokine Assays: Milliplex mouse cytokines/chemokine magnetic panel (Catalog no. MCYTOMAG-70K, EMD Millipore Corporation, Billerica, MA) was used to assay the cytokines, as described in the art. Briefly, splenocytes were plated at 2×10^6 cells per well in 500 μl of medium (RPMI/10% FBS). Supernatants from stimulated lymphocytes were collected 48 h after stimulation with peptides and stored in −80° C. until the assay was performed. The 96-well plate supplied in the kit was washed with the wash buffer supplied and the plate was shaken for 10 min at room temperature. Standards and quality controls were added, followed by the samples. The pre-mixed beads (Interferon gamma and IL-2) were sonicated, vortexed and added to the wells. After shaking the plate overnight at 4° C., the plate was washed twice with wash buffer. Detection antibodies were added for 1 h at room temperature, and Streptavidin-Phycoerythrin was added for 30 min at room temperature. The plate was washed twice and sheath fluid was added to resuspend the beads for 5 min before reading in Luminex 200 with xPONENT software (Luminex, Austin, Texas).
# Small Molecule Inhibition of Cytokine Production Ex Vivo: Eight NOD-DR3 mice were immunized with the three thyroidal/islet peptides. Upon sacrifice, splenocytes were incubated with 1 μM of small molecules (S5, S9, S15, S53) together with TPO.758 (20 μg/ml), GAD.492 (20 μg/ml) or Tg.1571 (20 μg/ml) respectively to assess the blockade of these peptides' presentation by the tested small molecules. Supernatants from stimulated lymphocytes were collected 48 h after stimulation with peptides and small molecules, and stored in −80° C. until the cytokine assay was performed. […]
smiles,measurement,setting,value
"COc1ccc2cc1Oc1ccc(cc1)C[C@H]1c3c(cc4c(c3Oc3cc5c(cc3OC)CCN(C)[C@@H]5C2)OCO4)CCN1C [S53, Cepharanthine]",antibody levels against mouse Tg,[1],did not significantly affect
same,free T4 levels,[1],did not significantly affect
same,IFN-g production in response to Tg.1571,"[2]; 1 μM small molecule + Tg.1571 20 μg/ml, 48 h",did not significantly reduce
same,inhibition of T-cell activation to all 3 peptides (production of IFNγ and IL-2),"[2]; 1 micromolar, Tg.1571, GAD.492, TPO.758",consistently inhibited T-cell activation to all 3 peptides
